From PMC4151564 (Journal of medicinal chemistry, 2011)

Key:
[1] = target: T1, eukaryotic topoisomerase IIα (Homo sapiens, UniProt P11388); experiment: Topo-IIα inhibition, agarose gel supercoiled DNA relaxation assay; type: biochemical; conditions: for Topo-IIα inhibition at 100 μM: 100 μM TSC ligand, gel Figure 1B
[2] = target: T1, eukaryotic topoisomerase IIα; conditions: read-out: Topo-IIα inhibition IC50; literature range; cited from earlier work
[3] = target: T1, eukaryotic topoisomerase IIα; experiment: Gel-based Topo-IIα inhibition mechanism assay; type: biochemical; conditions: 500 μM inhibitor, 4 units enzyme
Topo-IIα = conditions: cited from earlier work

T1 sequence (P11388 whole entry): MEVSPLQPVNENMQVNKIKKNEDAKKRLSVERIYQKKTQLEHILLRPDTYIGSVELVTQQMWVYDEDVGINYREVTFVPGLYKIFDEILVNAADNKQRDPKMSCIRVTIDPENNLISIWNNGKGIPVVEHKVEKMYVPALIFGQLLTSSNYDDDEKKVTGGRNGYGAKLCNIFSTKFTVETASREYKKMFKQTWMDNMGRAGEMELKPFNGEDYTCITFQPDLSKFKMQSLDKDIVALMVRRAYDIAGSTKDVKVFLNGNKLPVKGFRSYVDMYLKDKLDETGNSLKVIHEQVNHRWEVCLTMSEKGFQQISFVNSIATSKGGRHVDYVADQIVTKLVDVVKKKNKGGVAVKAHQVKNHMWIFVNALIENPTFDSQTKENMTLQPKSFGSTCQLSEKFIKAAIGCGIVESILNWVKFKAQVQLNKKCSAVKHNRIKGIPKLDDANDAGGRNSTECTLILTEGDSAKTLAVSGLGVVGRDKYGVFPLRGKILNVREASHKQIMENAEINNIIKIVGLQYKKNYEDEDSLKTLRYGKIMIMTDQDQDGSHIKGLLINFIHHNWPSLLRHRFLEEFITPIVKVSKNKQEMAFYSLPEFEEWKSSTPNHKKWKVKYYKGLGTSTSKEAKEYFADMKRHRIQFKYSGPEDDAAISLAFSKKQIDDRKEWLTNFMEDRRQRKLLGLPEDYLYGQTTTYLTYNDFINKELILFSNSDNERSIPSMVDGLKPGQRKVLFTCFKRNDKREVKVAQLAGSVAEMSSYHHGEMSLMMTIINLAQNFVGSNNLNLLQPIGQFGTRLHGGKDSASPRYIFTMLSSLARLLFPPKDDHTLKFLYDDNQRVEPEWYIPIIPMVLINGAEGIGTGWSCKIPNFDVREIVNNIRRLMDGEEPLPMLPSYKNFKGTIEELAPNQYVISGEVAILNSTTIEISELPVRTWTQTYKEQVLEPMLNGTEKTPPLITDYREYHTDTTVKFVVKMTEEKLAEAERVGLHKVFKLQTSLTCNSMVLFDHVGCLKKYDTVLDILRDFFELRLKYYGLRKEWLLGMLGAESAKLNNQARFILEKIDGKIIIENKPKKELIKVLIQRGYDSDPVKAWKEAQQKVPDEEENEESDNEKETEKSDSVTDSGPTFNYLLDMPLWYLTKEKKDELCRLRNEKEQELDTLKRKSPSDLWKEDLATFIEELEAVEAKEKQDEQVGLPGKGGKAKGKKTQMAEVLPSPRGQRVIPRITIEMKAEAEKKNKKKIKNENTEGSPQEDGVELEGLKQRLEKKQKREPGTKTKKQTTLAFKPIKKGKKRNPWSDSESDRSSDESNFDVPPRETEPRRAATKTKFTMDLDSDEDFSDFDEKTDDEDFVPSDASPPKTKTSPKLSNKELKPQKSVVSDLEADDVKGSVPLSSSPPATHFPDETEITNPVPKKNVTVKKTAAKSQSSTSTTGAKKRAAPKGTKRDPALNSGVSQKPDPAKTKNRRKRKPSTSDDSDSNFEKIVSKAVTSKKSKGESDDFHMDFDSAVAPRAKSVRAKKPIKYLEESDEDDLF

Compound | Topo-IIα inhibition at 100 μM [1] | Topo-IIα inhibition mechanism (formation of linear DNA) [3] | other results
CNC(=S)N/N=C/c1ccccn1 [HFp4mT, (E)-N-Methyl-2-(pyridin-2-ylmethylene) hydrazinecarbothioamide] | displaying any degree of inhibition |  | 
CCNC(=S)N/N=C(\C)c1ccccn1 [HAp4eT, (E)-N-Ethyl-2-(1-(pyridin-2-yl)ethylidene)hydrazinecarbothioamide] | displaying any degree of inhibition |  | 
COc1cccc2c1C(=O)c1c(O)c3c(c(O)c1C2=O)C[C@@](O)(C(=O)CO)C[C@@H]3O[C@H]1C[C@H](N)[C@H](O)[C@H](C)O1 [doxorubicin] |  |  | IC50 [2]: 1 to 5 µM
Cc1c2ccncc2c(C)c2c1[nH]c1ccccc12 [ellipticine] |  | produce discrete bands of linear DNA | 
[Cl][Cu][Cl] [CuCl2] |  |  | Topo-IIα inhibition, control experiment ([1]; any concentrations below 500 μM): does not inhibit the enzyme
CNC(=S)N/N=C(\C)c1ccccn1 [HAp4mT, (E)-N-Methyl-2-(1-(pyridin-2-yl)ethylidene)hydrazinecarbothioamide] | displaying any degree of inhibition |  | 
CN(C)C(=S)NN=C(c1ccccn1)c1ccccn1 [Dp44mT, di-2-pyridylketone-4,4-dimethylthiosemicarbazone] |  |  | concentration at which in vivo Topo-IIα inhibition was found (Topo-IIα): < 1 µM
2-Formylpyridine-N^4-allylthiosemicarbazonatochlorocopper (II) [Cu(Fp4alT)Cl] |  | completely inhibits Topo-IIα without promoting the formation of linear DNA products | 
O=C1NC(=S)NC(=O)C1C(=O)Nc1ccccc1 [merbarone] |  |  | IC50 [2]: 40 to 50 µM
CCNC(=S)N/N=C/c1ccccn1 [HFp4eT, (E)-N-Ethyl-2-(pyridin-2-ylmethylene)hydrazinecarbothioamide] | displaying any degree of inhibition |  | 
COc1cc(NS(C)(=O)=O)ccc1Nc1c2ccccc2nc2ccccc12 [m-AMSA] |  | produce discrete bands of linear DNA | 
O=c1c(-c2ccc(O)cc2)coc2cc(O)cc(O)c12 [genistein] |  | produce discrete bands of linear DNA | 
